The source of these data is PubChem BioAssay AID2423 (Broad Institute, 2010).

By EC50 is commonly meant the concentration giving half of the maximal effect.

Records with an inconclusive call do not appear. The source made the active and inactive calls. No rule for the calls is given here.

This test has as its system C. albicans CaCi-8 + fluconazole, Alamar Blue growth, 48 h. Description: resistant C. albicans growth inhibition with fluconazole, dose response, CaCi-8 strain, Alamar Blue fluorescence (AID 2423). On the technique in general: Alamar Blue is a resazurin reagent that responds to reducing activity.
With `Cc1ccc(C(c2cc(Cl)c3cccnc3c2O)N2CCN(C)CC2)cc1` (configuration not stated), the EC50 is 704 nM. Turning to `CCCCC(=O)NNC(=S)NC(=O)c1ccc(C)cc1`, the EC50 was 7760 nM. For the molecule `CCc1nnc(NC(=O)CN2CCN(c3nc(-c4ccccc4)cs3)CC2)s1`, the EC50 is 371 nM. As for `O=C(CSc1cccc[n+]1[O-])CSc1cccc[n+]1[O-]`, the EC50 was 13400 nM.

Take `O=C(Nc1nc(=O)c2ccccc2s1)c1ccc(Cl)cc1`: the EC50 was > 15000 nM (inactive). With `COc1ccc(-c2nnc(NC(=O)c3ccc(S(=O)(=O)N4CCc5ccccc5C4)cc3)o2)cc1`, the EC50 was 747 nM. On to `c1ccc(CSc2nnc(-c3cccs3)n2Cc2ccco2)cc1`, for which the EC50 is 4720 nM. Turning to `CCC(Oc1ccccc1)C(=O)Nc1ncc([N+](=O)[O-])s1` (configuration not stated), the EC50 was > 16000 nM (inactive).

Take `O=S(=O)(O)c1cc(O)c2c(O)c(N=Nc3cc(Cl)ccc3O)c(S(=O)(=O)O)cc2c1`: the EC50 was 7520 nM.

On to `CCOC(=O)c1c(NC(=O)CN2CCN(C(=O)c3ccco3)CC2)sc2c1CCCC2`, for which the EC50 is > 15000 nM (inactive).

Consider `N#C/C(=N\Nc1cccc([N+](=O)[O-])c1)C(=O)c1ccc(Br)cc1`, for which the EC50 was 5560 nM. Regarding `Cc1ccc(O)c(C2=NNC(c3ccc(Cl)cc3)C2)c1` (configuration not stated), the concentration for a half-maximal effect (EC50) is 395 nM.

In the case of `O=C(Cc1nc2ccccc2s1)c1ccc(O)cc1O`, the EC50 is 2860 nM.

`O=C(NCC(=O)N(CC1CCCO1)C(C(=O)NC1CCCCC1)c1ccccc1)c1ccco1` (configuration not stated): the EC50 was > 15000 nM (inactive). `CN(C)c1ccc(/C=C/c2ccc3ccccc3[n+]2C)cc1`: the EC50 is 370 nM. The same measure for `COc1ccc(/C=C/C(=O)N(c2ccccn2)C2CCCCC2)cc1OC`: 7990 nM; for `CC(C)(C)c1ccc(OCc2ccc(C(=O)N/N=C/c3ccc(O)c(O)c3)cc2)cc1`: 3080 nM. Regarding `Cc1ccc(C(C)C)c(OCc2ccc(C(=O)N/N=C/c3cccc(O)c3O)cc2)c1`, the EC50 was 788 nM. In the case of `CCNC(=S)NNC(=O)c1cc(-c2ccc(OC)cc2)nc2ccccc12`, the EC50 is 4380 nM. With `O=C1c2ccccc2C(=O)c2c1cccc2N1CCCC1`, the EC50 is > 16000 nM (inactive). In the case of `CC(=O)c1c(C)nc(-c2cccc([N+](=O)[O-])c2)n1O`, the EC50 is 3290 nM. The same measure for `CSc1ccc(C2c3[nH]c4ccccc4c3CCN2C(=O)c2ccnn2C)cc1` (configuration not stated): 2350 nM; for `O=S(=O)(c1ccc(Cl)cc1)N1CCN(Cc2ccc(O)c3ncccc23)CC1`: 2940 nM; for `COc1cc(C2C(C#N)=C(N)N(c3ccc(F)cc3)C3=C2S(=O)(=O)CC3)ccc1O` (configuration not stated): > 16000 nM (inactive).

For `C/C(=N\NC(=O)c1cccc(N/N=C(\C)c2cc(O)ccc2O)c1)c1cc(O)ccc1O`, the EC50 is > 15000 nM (inactive). Take `Cc1ccc(NCc2ccc(O)c3ncccc23)cc1`: the EC50 was 16000 nM. Consider `O=C1C2CCN(CC2)C1Cc1ccc(OCc2ccccc2)cc1` (configuration not stated), for which the EC50 was 2190 nM. The same measure for `CC(=O)Nc1cccc(-c2csc(Nc3ccc(C)cn3)n2)c1`: 2260 nM. For the molecule `CCSc1ccc2cc(OC)ccc2[n+]1CC`, the EC50 is 4710 nM. `C/C(=N\NC(=O)C1CCCC1)c1ccc(Cl)c(Cl)c1`: the EC50 was > 15000 nM (inactive).

On to `Cc1ccc(Nc2cc(C)nn2-c2nc(C)cc(=O)[nH]2)cc1`, for which the EC50 was less than 120 nM. As to `C=CCc1c(C)c(C#N)c2nc3ccccc3n2c1NCCN(C)C`, the EC50 was 896 nM. With `COc1cccc(NC(=O)c2ccc3nc(C)sc3c2)c1` the figure was 1490 nM; with `O=C(COc1ccccc1)Nc1nnc(-c2ccc3c(c2)CCCC3)o1`, 727 nM. In the case of `O=C1C2CCN(CC2)C1Cc1ccc(OCCOc2ccccc2)cc1` (configuration not stated), the EC50 is 1680 nM. In the case of `Cn1c(NN=O)nc2ccccc21`, the EC50 was > 15000 nM (inactive).

Take `CC(Nc1ncnc2ccccc12)c1ccccc1` (configuration not stated): the EC50 was 606 nM. Turning to `O=c1c2ccccc2nc(-c2ccc(Cl)cc2Cl)n1O`, the EC50 is 1020 nM. The same measure for `Cc1nc(NC(=O)c2c(-c3ccccc3)noc2C)sc1C(=O)N(C)C`: 16300 nM. Consider `O=C(Nc1sc2c(c1C(=O)c1ccc(Cl)cc1)CCCC2)c1cccnc1`, for which the EC50 was 615 nM. Take `C/C(=N\NC(=O)CCC(=O)Nc1ccc(C)c(C)c1)C1CC1`: the EC50 is > 15000 nM (inactive). As to `COc1ccc(-c2csc(N(CC3CCCO3)C(=O)c3ccco3)n2)cc1` (configuration not stated), the EC50 was > 16000 nM (inactive). The same measure for `O=Nc1c(O)n(Cc2cccc(C(F)(F)F)c2)c2ccccc12`: 932 nM; for `Cc1ccc(NC(=O)c2sc3nc(N)c(C#N)cc3c2N)cc1`: 625 nM. As to `CC(C)n1c(N2CCN(C(=O)Nc3ccc(Cl)cc3)CC2)nc2ccccc21`, the EC50 is > 15000 nM (inactive). Regarding `O=C1NC(=O)/C(=C/c2ccccc2Oc2ccc(Cl)cc2)S1`, the EC50 was > 16000 nM (inactive). With `Oc1ccc(/C=N/N(c2ccccc2)c2ccccc2)c(O)c1O`, the concentration for a half-maximal effect (EC50) is 10800 nM.

As for `O=C(NC(=S)Nc1ccccc1O)c1ccc(Cl)cc1Cl`, the EC50 is 624 nM. Consider `O=[N+]([O-])c1ccc(O)c(Nc2ncnc3ccc(Br)cc23)c1`, for which the EC50 is 150 nM. The same measure for `CCc1cc(C(=O)NNC(=S)Nc2cc(C)ccc2C)cs1`: 422 nM; for `O=C(OCn1ncc(Cl)c(Cl)c1=O)c1cccc(C(F)(F)F)c1`: 2460 nM; for `O=C(NCc1ccc(F)cc1)C(c1ccccc1)N(CC1CCCO1)C(=O)Cn1nnc2ccccc21` (configuration not stated): 1160 nM. `COc1cc(OC)cc(C(=O)NNC(=O)c2cc3ccccc3cc2O)c1`: the EC50 was 9180 nM.

For the molecule `O=[N+]([O-])c1ccc(C(=Nc2cccc3ccccc23)N2CCOCC2)cc1`, the EC50 is 1350 nM. With `Cc1ccc(-c2nnn(CC(=O)N(Cc3ccco3)C(C(=O)NC(C)(C)C)c3ccncc3)n2)o1` (configuration not stated), the EC50 is > 15000 nM (inactive). In the case of `O=C(Oc1c(CN2CCOCC2)cc(Cl)c2cccnc12)c1ccccc1Br`, the 50% effective concentration (EC50) was 4120 nM.

For `COc1ccccc1N=Nc1ccc(O)c2ncccc12`, the EC50 was 871 nM. The same measure for `C=CCn1c(O)c(N=NC(=S)Nc2ccccc2C)c2cc(S(=O)(=O)N3CCOCC3)ccc21`: 1190 nM; for `Cn1c(=O)c(C(=O)NCCc2ccccc2)c(O)c2ccccc21`: 13000 nM; for `Cc1ccc(C)c(NC(=S)NNC(=O)c2csc(C)c2)c1`: 704 nM. Regarding `CCOC(=O)C(=Cc1cc(=O)c(OC)co1)C(=O)OCC`, the EC50 is 331 nM. With `COc1ccc(C2=NN(c3nc4ccccc4s3)C(=O)C2)cc1`, the EC50 is 5660 nM. In the case of `N#Cc1c(-c2ccc(Cl)cc2)cc(-c2ccccc2)nc1SCC(=O)O`, the EC50 was 1200 nM. With `COc1ccc(O)c(/C=N/NC(=O)c2ccc(N3CCCC3=O)cc2)c1` the figure was > 16000 nM (inactive); with `C/C(CC(=O)Nc1cc(C)ccn1)=N\NC(=O)c1cccc(C)c1O`, > 16000 nM (inactive). With `C[n+]1c2n(c3ccccc31)N=C(c1ccc(-c3ccccc3)cc1)CS2` the figure was 1880 nM; with `O=C(N/N=C/c1cc([N+](=O)[O-])ccc1O)C(O)(c1ccccc1)c1ccccc1`, 5790 nM. For the molecule `Cc1cccc(NC2=NC(=S)N(c3cccc(C(=O)O)c3)C23CCCCC3)c1`, the EC50 is 772 nM. Consider `COc1cc(OC)c2cc(C(=O)N/N=C/c3ccccc3O)[nH]c2c1`, for which the EC50 was 1240 nM. Take `COc1ccc(-c2nnc(NC(=O)c3cc(Cl)ccc3Cl)o2)cc1`: the EC50 is 1120 nM. On to `CCCCOP(=O)(c1ccc(N(C)C)cc1)C(O)c1ccccc1F` (configuration not stated), for which the EC50 was 4660 nM.

As to `CCn1c(C)nc2cc(C(=O)NNC(=S)Nc3ccc(Cl)cc3Cl)ccc21`, the EC50 is 990 nM.

`CC(=O)c1c(C)[nH]c(C(=O)Nc2ccc(C)c(C)c2)c1C`: the EC50 is 3450 nM. With `C=CCn1c(N)nc2ccccc21`, the EC50 is 2720 nM. On to `CCC(=O)NC(c1cccs1)c1ccc2cccnc2c1O` (configuration not stated), for which the EC50 is 1510 nM. The same measure for `O=C(N/N=C/c1cc([N+](=O)[O-])ccc1O)c1ccc(COc2ccc3c(c2)CCC3)o1`: 915 nM; for `CCOc1ccc(Nc2nc(NCC3CCCO3)c3ccccc3n2)cc1` (configuration not stated): 1980 nM; for `O=C(Nc1nnc(-c2ccc3c(c2)CCCC3)o1)c1ccc(Cl)cc1Cl`: less than 120 nM. For `Cc1ccc(C(=O)NCc2ccco2)cc1S(=O)(=O)Nc1cccc(Cl)c1`, the EC50 is > 15000 nM (inactive). In the case of `COc1ccccc1-n1c(C)cc(SC)c(C(C)=O)c1=S`, the EC50 is > 15000 nM (inactive). Take `Cc1[nH]nc(-c2ccc(O)c(C)c2O)c1-c1cnn(-c2ccccc2)c1`: the EC50 is 3960 nM. Take `CCCCCCn1c(=O)c(-c2ccccc2)c(O)c2ccccc21`: the EC50 is 9420 nM. Consider `Cc1ccc(NC(=O)c2ccccc2NS(=O)(=O)c2ccc(Cl)s2)cc1`, for which the EC50 was 1160 nM. For `O=C(/C=C1\NC2(CCCC2)Cc2ccccc21)C(=O)N/N=C/c1ccccc1O`, the half-maximal effective concentration (EC50) is 601 nM. Take `CN(CCCNC(=O)CCCOc1cc(=O)n(C)c2ccccc12)Cc1ccccc1`: the EC50 was > 16000 nM (inactive). For `O=C(N/N=C/c1cc([N+](=O)[O-])ccc1O)/C(=C\c1cccs1)NC(=O)c1ccccc1`, the EC50 was 3590 nM. `Cc1ccc2nc(-c3ccccc3Cl)cc(C(=O)Nc3cc(C)on3)c2c1`: the EC50 is 505 nM. Consider `CCOC(=O)c1c(-c2ccccc2)oc2cc(Br)c(O)c(C=O)c12`, for which the EC50 is 1440 nM. In the case of `Oc1[nH]c2c(Cl)cc(Cl)cc2c1N=NC(=S)NCC1CCCO1` (configuration not stated), the EC50 is 3580 nM.

Take `Cc1nc(SCc2ccc(Cl)c(Cl)c2)ncc1C(=O)O`: the EC50 was > 15000 nM (inactive). As to `Cc1ccc(-n2c(O)c(C=Nc3ccccc3-c3n[nH]c(=S)[nH]c3=O)c3ccccc3c2=O)cc1C`, the EC50 was 496 nM.

As for `O=[N+]([O-])c1ccc(O)c(/C=N/Nc2ccc(Cl)nn2)c1`, the EC50 is 1800 nM. On to `Oc1c(C(c2ccc(Cl)cc2)N2CCCC2)cc(Cl)c2cccnc12` (configuration not stated), for which the EC50 was 686 nM. Take `CC1=C(CC[C@@H](C)CO)OC2CC3C4CCC5CC(O)CCC5(C)C4CC(=O)C3(C)C12` (some centres not stated): the EC50 was 135 nM. As for `COc1ccc(O)c(/C=N/NC(=O)c2ccc(CSc3nc(C)cc(C)n3)cc2)c1`, the concentration for a half-maximal effect (EC50) is 1760 nM.

On to `CON/C=C(\C=Nc1ccc(Cl)cc1Cl)c1ncc(C(F)(F)F)cc1Cl`, for which the EC50 is > 16000 nM (inactive).

In the case of `COc1ccc(C(=O)NC(=S)NNC(=O)c2ccc3ccccc3n2)cc1`, the EC50 was 583 nM.
